This note sets out measurements from patent publication US20240217990A1 (Gilead Sciences, Inc., priority 2021, published 2024).

Assay [1] concerns the target T1, TLR7 (Homo sapiens, UniProt Q9NYK1).
T1 construct: Human peripheral blood mononuclear cells (PBMCs) consist of lymphocytes, monocytes and dendritic cells that express TLR7, TLR8 and TLR9; endogenous in cells; host or cells: cryopreserved human PBMCs from healthy donors
T1 sequence (Q9NYK1 27-1049): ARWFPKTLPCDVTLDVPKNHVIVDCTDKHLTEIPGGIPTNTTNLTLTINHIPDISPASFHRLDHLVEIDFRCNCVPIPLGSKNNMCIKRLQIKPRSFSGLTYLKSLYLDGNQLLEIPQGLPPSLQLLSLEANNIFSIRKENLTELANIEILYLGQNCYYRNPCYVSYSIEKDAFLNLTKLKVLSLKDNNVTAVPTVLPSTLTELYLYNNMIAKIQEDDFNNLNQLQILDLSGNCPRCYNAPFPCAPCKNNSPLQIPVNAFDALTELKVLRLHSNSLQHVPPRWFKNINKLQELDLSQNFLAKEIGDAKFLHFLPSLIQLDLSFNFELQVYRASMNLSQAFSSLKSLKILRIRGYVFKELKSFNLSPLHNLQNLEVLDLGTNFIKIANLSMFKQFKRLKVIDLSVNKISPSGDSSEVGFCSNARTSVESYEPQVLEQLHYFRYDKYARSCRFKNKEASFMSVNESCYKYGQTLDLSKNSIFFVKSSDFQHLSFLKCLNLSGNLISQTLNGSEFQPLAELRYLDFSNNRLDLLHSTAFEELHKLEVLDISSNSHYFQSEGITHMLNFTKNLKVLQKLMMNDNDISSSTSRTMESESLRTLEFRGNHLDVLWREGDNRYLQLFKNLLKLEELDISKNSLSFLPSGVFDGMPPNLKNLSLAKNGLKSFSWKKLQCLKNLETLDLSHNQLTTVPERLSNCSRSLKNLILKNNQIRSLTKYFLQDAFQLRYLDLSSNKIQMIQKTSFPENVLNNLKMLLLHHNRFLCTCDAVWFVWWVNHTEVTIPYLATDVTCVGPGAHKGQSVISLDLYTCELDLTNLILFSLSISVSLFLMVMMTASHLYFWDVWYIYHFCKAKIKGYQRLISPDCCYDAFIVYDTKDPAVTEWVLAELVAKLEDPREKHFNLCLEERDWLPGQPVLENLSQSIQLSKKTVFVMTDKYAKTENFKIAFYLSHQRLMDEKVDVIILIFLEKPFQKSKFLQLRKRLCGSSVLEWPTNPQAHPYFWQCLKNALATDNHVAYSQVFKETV
Put plainly: TLR7 human PBMC cell-based assay (antagonist, GS-986 stimulated cytokine release). Conditions: human PBMCs; TLR7 agonist GS-986 400 nM, 6 hours; cytokines (IL-6 and IFNα) in supernatant; read-out: TLR-7 EC50. The method in brief: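 Cryopreserved healthy-donor PBMCs (100,000/well, RPMI-1640 + 10% FBS) pre-incubated 1 h at 37 °C with antagonist (10-point dose response, quadruplicate), then stimulated 6 h with GS-986 at 400 nM final. Supernatant IL-6 and IFNα measured by electrochemiluminescence immunoassay; EC50 from sigmoidal fit.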

Assay [2] addresses T2, TLR8 (Homo sapiens, UniProt Q9NR97).
T2 construct: Human peripheral blood mononuclear cells (PBMCs) consist of lymphocytes, monocytes and dendritic cells that express TLR7, TLR8 and TLR9; endogenous in cells; host or cells: cryopreserved human PBMCs from healthy donors
T2 sequence (Q9NR97 27-1041): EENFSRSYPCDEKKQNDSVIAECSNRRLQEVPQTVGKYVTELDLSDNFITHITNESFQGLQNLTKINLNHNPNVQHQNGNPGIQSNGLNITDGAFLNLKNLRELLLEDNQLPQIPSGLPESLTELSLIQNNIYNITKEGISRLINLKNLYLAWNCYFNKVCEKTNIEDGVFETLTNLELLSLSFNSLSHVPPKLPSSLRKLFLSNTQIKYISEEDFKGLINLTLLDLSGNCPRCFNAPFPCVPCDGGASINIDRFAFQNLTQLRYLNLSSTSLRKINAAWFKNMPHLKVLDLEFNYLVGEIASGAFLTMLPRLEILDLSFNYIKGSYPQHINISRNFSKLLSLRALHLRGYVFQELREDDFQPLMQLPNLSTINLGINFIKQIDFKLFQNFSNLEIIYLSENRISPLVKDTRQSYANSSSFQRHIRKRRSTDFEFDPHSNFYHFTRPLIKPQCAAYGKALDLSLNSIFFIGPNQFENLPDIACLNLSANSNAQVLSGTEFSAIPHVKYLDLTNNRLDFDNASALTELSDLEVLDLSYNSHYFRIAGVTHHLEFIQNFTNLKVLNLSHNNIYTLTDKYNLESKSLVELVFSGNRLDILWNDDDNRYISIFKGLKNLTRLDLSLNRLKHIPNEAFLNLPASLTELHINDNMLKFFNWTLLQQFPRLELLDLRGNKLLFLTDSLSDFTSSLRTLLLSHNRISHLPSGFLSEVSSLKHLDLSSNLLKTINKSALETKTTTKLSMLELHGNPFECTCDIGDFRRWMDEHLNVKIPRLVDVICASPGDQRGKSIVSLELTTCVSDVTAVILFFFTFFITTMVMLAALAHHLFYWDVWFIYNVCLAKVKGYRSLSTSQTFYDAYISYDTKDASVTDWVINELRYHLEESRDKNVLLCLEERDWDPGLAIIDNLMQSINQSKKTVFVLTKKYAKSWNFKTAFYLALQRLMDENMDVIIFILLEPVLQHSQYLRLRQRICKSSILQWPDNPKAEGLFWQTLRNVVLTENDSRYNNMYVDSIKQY
In words: TLR8 human PBMC cell-based assay (antagonist, Compound A stimulated cytokine release). Conditions: human PBMCs; TLR8 agonist Compound A 800 nM, 6 hours; cytokines (TNFa and IL 12p40) in supernatant; read-out: TLR-8 EC50. The procedure, abridged: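 Cryopreserved donor PBMCs (100,000/well, RPMI + 10% FBS) were preincubated 1 h with antagonist (10-point dose response, quadruplicate), then stimulated with Compound A (800 nM final) for 6 h at 37 °C. TNFa and IL-12p40 in supernatants were measured by electrochemiluminescence; sigmoidal fits gave EC50.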

The term EC50 denotes the concentration that produces a half-maximal response.

`Cc1cc(-c2[nH]c3cc(C(=O)N4CCN[C@@H](CO)C4)sc3c2C(C)C)cn2ncnc12` [Example 122]: the results for the EC50 in assay [1] and in assay [2] were 0.9 nM and 2.6 nM, respectively.

For `Cc1cc(-c2[nH]c3cc(C(=O)N4C[C@@H](C)NC[C@@H]4C)sc3c2C(C)C)cn2ncnc12` [Example 123], the results for the half-maximal effective concentration (EC50) in assay [1] and in assay [2] were 1.3 nM and 0.5 nM, respectively.

`Cc1cc(-c2[nH]c3cc(C(=O)N4C[C@H](C)NC[C@H]4C)sc3c2C(C)C)cn2ncnc12` [Example 124]: the EC50 in assay [1] stood at 0.5 nM; in assay [2], 1.7 nM.

Regarding `Cc1cc(-c2[nH]c3cc(C(=O)N4CCN[C@@H](C)C4)sc3c2C(C)C)cn2ncnc12` [Example 125], the results for the EC50 in assay [1] and in assay [2] were 1.2 nM and 0.3 nM, respectively.

Take `Cc1cc(-c2[nH]c3cc(C(=O)N4CC5(CCNCC5)C4)sc3c2C(C)C)cn2ncnc12` [Example 126]: the values for the EC50 in assay [1] and in assay [2] were 2.5 nM and 15.7 nM, respectively.

For `Cc1cc(-c2[nH]c3cc(C(=O)N4C[C@@H](C)N[C@H](C)C4)sc3c2C(C)C)cn2ncnc12` [Example 127], the figures for the EC50 in assay [1] and in assay [2] were 1.5 nM and 0.5 nM, respectively.

`Cc1cc(-c2[nH]c3cc(C(=O)N4CCN[C@H](C)C4)sc3c2C(C)C)cn2ncnc12` [Example 128]: the EC50 in assay [1] was determined as 1.1 nM; in assay [2] it was 0.8 nM.

With `Cc1cc(-c2[nH]c3cc(C(=O)N4CCN[C@H](c5ccccc5)C4)sc3c2C(C)C)cn2ncnc12` [Example 129], the EC50 in assay [1] was 18.1 nM; in assay [2], 2.2 nM.

As to `Cc1cc(-c2[nH]c3cc(C(=O)N4CCNC(C(F)F)C4)sc3c2C(C)C)cn2ncnc12` (stereo not drawn) [Example 130], the EC50 was 40.7 nM in assay [1] and 28.6 nM in assay [2].

With `Cc1cc(-c2[nH]c3cc(C(=O)N4C[C@H]5NCCO[C@@H]5C4)sc3c2C(C)C)cn2ncnc12` [Example 131], the EC50 in assay [1] stood at 21 nM; in assay [2], 6.7 nM.

`Cc1cc(-c2[nH]c3cc(C(=O)N4C[C@@H]5NCCO[C@@H]5C4)sc3c2C(C)C)cn2ncnc12` [Example 132]: the EC50 in assay [1] was found to be 33.7 nM; in assay [2], 26.9 nM.

On to `Cc1cc(-c2[nH]c3cc(C(=O)N(C)C4CCN(CC(F)F)CC4)sc3c2C(C)C)cn2ncnc12` [Example 134], for which the EC50 in assay [1] stood at 88.7 nM; in assay [2] it was 94.1 nM.

For the compound `CCN(C(=O)c1cc2[nH]c(-c3cc(C)c4ncnn4c3)c(C(C)C)c2s1)C1CCNCC1` [Example 135], the EC50 in assay [1] stood at 0.4 nM; in assay [2], 9.9 nM.

As to `Cc1cc(-c2[nH]c3cc(C(=O)N(C)CCN(C)C)sc3c2C(C)C)cn2ncnc12` [Example 136], the half-maximal effective concentration (EC50) in assay [1] came to 0.7 nM; in assay [2] it was 29.8 nM.

With `Cc1cc(-c2[nH]c3cc(C(=O)N(C)Cc4cccnc4)sc3c2C(C)C)cn2ncnc12` [Example 137], the concentration giving a half-maximal response (EC50) in assay [1] is 44.3 nM; in assay [2], 137 nM.

For `Cc1cc(-c2[nH]c3cc(C(=O)N(C)C4CCN(C5COC5)CC4)sc3c2C(C)C)cn2ncnc12` [Example 139], the values for the EC50 in assay [1] and in assay [2] were 15 nM and 10.8 nM, respectively.

On to `Cc1cc(-c2[nH]c3cc(C(=O)N(C)C4CCN(CCO)CC4)sc3c2C(C)C)cn2ncnc12` [Example 141], for which the 50% effective concentration (EC50) in assay [1] turned out to be 1.3 nM; in assay [2], 2.7 nM.

`Cc1cc(-c2[nH]c3cc(C(=O)N(C4CCNCC4)C4CC4)sc3c2C(C)C)cn2ncnc12` [Example 143]: the EC50 in assay [1] was determined as 0.7 nM; in assay [2] it was 27 nM.

As for `Cc1cc(-c2[nH]c3cc(C(=O)N4CC[C@@H](N(C)C)C4)sc3c2C(C)C)cn2ncnc12` [Example 144], the EC50 worked out at 5.4 nM in assay [1] and 1.1 nM in assay [2].

With `Cc1cc(-c2[nH]c3cc(C(=O)N4CCC[C@H]4CN)sc3c2C(C)C)cn2ncnc12` [Example 145], the concentration for a half-maximal effect (EC50) in assay [1] turned out to be 3.8 nM; in assay [2], 46.3 nM.

Take `Cc1cc(-c2[nH]c3cc(C(=O)N4CC[C@@H](CN)C4)sc3c2C(C)C)cn2ncnc12` [Example 146]: the EC50 was 19 nM in assay [1] and 27.2 nM in assay [2].

As to `Cc1cc(-c2[nH]c3cc(C(=O)N4CC(N(C)C)C4)sc3c2C(C)C)cn2ncnc12` [Example 147], the results for the concentration giving a half-maximal response (EC50) in assay [1] and in assay [2] were 152 nM and 2.4 nM, respectively.

As to `Cc1cc(-c2[nH]c3cc(C(=O)N4CCNC[C@H]4C)sc3c2C(C)C)cn2ncnc12` [Example 148], the EC50 in assay [1] is 4.8 nM; in assay [2] it was 11 nM.

Consider `Cc1cc(-c2[nH]c3cc(C(=O)N4CCNC[C@@H]4C)sc3c2C(C)C)cn2ncnc12` [Example 149], for which the EC50 in assay [1] amounted to 2.8 nM; in assay [2], 10.5 nM.

Turning to `Cc1c(-c2[nH]c3cc(C(=O)N(C)C4CCNCC4)sc3c2C(C)C)cn2ncnc2c1C` [Example 150], the EC50 in assay [1] was determined as 1 nM; in assay [2], 2.5 nM.

For the compound `Cc1c(-c2[nH]c3cc(C(=O)N(C)C4CCN(C)CC4)sc3c2C(C)C)cn2ncnc2c1C` [Example 151], the EC50 in assay [1] came out at 0.8 nM; in assay [2], 0.6 nM.

Take `Cc1cc(-c2[nH]c3cc(C(=O)N4CCN[C@H](C(F)(F)F)C4)sc3c2C(C)C)cn2ncnc12` [Example 152]: the EC50 amounted to 90.9 nM in assay [1] and 58.9 nM in assay [2].

Take `Cc1cc(-c2[nH]c3cc(C(=O)N(C)[C@@H]4CCCNC4)sc3c2C(C)C)cn2ncnc12` [Example 153]: the EC50 turned out to be 2.4 nM in assay [1] and 6.5 nM in assay [2].

Regarding `Cc1cc(-c2[nH]c3cc(C4CCNCC4)sc3c2C(C)C)cn2ncnc12` [Example 154, 6-isopropyl-5-(8-methyl-[1,2,4]triazolo[1,5-a]pyridin-6-yl)-2-(piperidin-4-yl)-4H-thieno[3,2-b]pyrrole], the EC50 in assay [1] was determined as 0.6 nM; in assay [2], 3.6 nM.

`Cc1cc(-c2[nH]c3cc(C4CCCNC4)sc3c2C(C)C)cn2ncnc12` (stereo not drawn) [Example 155]: the concentration giving a half-maximal response (EC50) in assay [1] is 4.8 nM; in assay [2], 5.7 nM.

With `Cc1cc(-c2[nH]c3cc(C4CC5CCC(C4)N5)sc3c2C(C)C)cn2ncnc12` (stereo not drawn) [Example 156], the EC50 in assay [1] was determined as 0.1 nM; in assay [2], 8.8 nM.

As to `Cc1cc(-c2[nH]c3cc(C4CCC5CNCC5C4)sc3c2C(C)C)cn2ncnc12` (stereo not drawn) [Example 157], the EC50 in assay [1] worked out at 0.3 nM; in assay [2] it was 31.7 nM.

As to `Cc1cc(-c2[nH]c3cc(C4CC5CNCC5C4)sc3c2C(C)C)cn2ncnc12` (stereo not drawn) [Example 158], the values for the EC50 in assay [1] and in assay [2] were 0.2 nM and 12.9 nM, respectively.
